Source: US20020037872A1, “N6 heterocyclic 5' modified adenosine derivatives” (CV Therapeutics, Inc., priority 1999, published 2002)
Where two headings read alike, the source gives them in different places.

Columns and labels:
[1] = biological target: T1, A1 adenosine receptor (Mesocricetus auratus, UniProt A0A1U8BVR4); assay: [35S]GTPγS binding assay, A1-agonist stimulated; format: biochemical, hamster; conditions: agonist stimulated [35S]GTPγS binding, CPA = 100%
T1 construct: endogenous in cells; host or cells: DDT1 (DDT1 MF-2) hamster vas deferens smooth muscle cells
T1 sequence (A0A1U8BVR4 1-326): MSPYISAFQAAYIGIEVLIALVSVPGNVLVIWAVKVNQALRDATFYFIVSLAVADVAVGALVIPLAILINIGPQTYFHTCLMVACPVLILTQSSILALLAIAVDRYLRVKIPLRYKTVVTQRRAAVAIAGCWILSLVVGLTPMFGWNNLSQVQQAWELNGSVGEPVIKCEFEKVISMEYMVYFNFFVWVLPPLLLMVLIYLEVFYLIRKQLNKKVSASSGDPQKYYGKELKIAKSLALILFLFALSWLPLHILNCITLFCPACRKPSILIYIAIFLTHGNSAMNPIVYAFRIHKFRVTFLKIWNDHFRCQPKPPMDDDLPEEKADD
Procedure: (§1) Attached cells were washed twice with HBSS (2×10 ml), scraped free of the plate with the aid of a rubber policeman in 5 ml of 50 mM Tris-HCI buffer pH 7.4 at 4° C. and the suspension homogenized for 10 s. The suspension was then centrifuged at 27,000×g for 10 min. The pellet was resuspended in homogenization buffer by vortexing and centrifuged as described above. The final pellet was resuspended in 1 vol of 50 mM Tris-HCI buffer pH 7.4 containing 5 mM MgCl2 for A1 AdoR assays. For the [^35S]GTPγS binding assay the final pellet was resuspended in 50 mM Tris-HCI pH 7.4 containing 5 mM MgCl2, 100 mM NaCl and 1 mM dithiothreitol. This membrane suspension was then placed in liquid nitrogen for 10 min, thawed and used for assays. The protein content was determined by the method of Bradford (1976) using bovine serum albumin as standard.
A1-agonist stimulated [^35S]GTPγS binding was determined by a modification of the method described by Giersckik et al. (1991) and Lorenzen et al. (1993). […] Nonspecific binding was determined by the addition of 10 μM GTPγS. […] Previous reports have shown that agonist stimulated [^35S]GTPγS binding was dependent on the presence of GDP (Gierschik et al., 1991; Lorenzen et al., 1993; Traynor & Nahorski, 1995). […] In saturation experiments, 0.5 nM [^35S]GTPγS was incubated with 0.5-1000 nM GTPγS. At the end of the incubation, each suspension was filtered and the retained radioactivity determined as described above.

[2] = biological target: T1, A1 adenosine receptor; assay: cAMP assay (SPA) in DDT1 cells, forskolin-induced cAMP; format: cell-based, hamster; conditions: normalized to full agonist CPA, 5 μM forskolin, 50 μM rolipram; for Emax: 10 min
Procedure: A scintillation proximity assay (SPA) using rabbit antibodies directed at cAMP using an added tracer of adenosine 3′,5′-cyclic phosphoric acid 2′-O-succinyl-3-[^125I]iodotyrosine methyl ester and fluoromicrospheres containing anti-rabbit specific antibodies as described by Amersham Pharmacia Biotech (Biotrak cellular communication assays). Briefly, DDT1 cells were cultured in clear bottomed 96 well microtiter plates with opaque wells at concentrations between 10^4 to 10^6 cells per well in 40 μl of HBSS at 37° C. (5% CO2 and 95% humidity). The partial or full A1 agonists (5 μl) of this invention were incubated at various concentrations with the DDT1 cells in the presence of rolipram (50 μM), and 5 μM forskolin for 10 min at 37° C. The cells were immediately lysed by treatment 5 μl of 10% dodecyltrirnethylammonium bromide followed by shaking using rnicroplate shaker. After incubation of the plate for 5 minutes, an imnuunoreagent solution (150 μl containing equal volumes of tracer, antiserum, and SPA fluorospheres) was added to each well followed by sealing the plate. After 15-20 h at 23° C., the amount of bound [^125] cAM to the fluoromicrospheres was determined by counting in a microtitre plate scintillation counter for 2 minutes. Comparison of counts with standard curves generated for cAMP using a similar protocol afforded the cAMP present after cell lysis.

[3] = biological target: T2, A1 receptor (Mesocricetus auratus, UniProt A0A1U8BVR4); assay: Competitive binding assay, DDT1 cell membranes, [3H]CCPA; design: species or system hamster; conditions: [3H]CCPA 2 nM
T2 construct: endogenous in cells; host or cells: DDT1 (DDT1 MF-2) hamster vas deferens smooth muscle cells
T2 sequence (A0A1U8BVR4 1-326): T1 sequence (A0A1U8BVR4 1-326)
Procedure: Cells were subcultured twice weekly by dispersion in Hank's Balanced Salt Solution (HBSS) without the divalent cations and containing 1 mM EDTA. The cells were then seeded in growth medium at a density of 1.2×10^5 cells per plate and experiments were performed 4 days later at approximately one day preconfluence.
as §1, with “assays.” for “assays. The protein content was determined by the method of Bradford (1976) using bovine serum albumin as standard.”
Competitive Binding Assay Pig striatum were prepared by homogenation in 50 mM Tris buffer (5× volume of tissue mass pH=7.4). After centrifilgation at 19,000 rpm for 25 minutes at 4° C., the supernatant was discarded, and the process was repeated twice. Compositions of this invention were assayed to determine their affinity for the A1 receptor in a pig striatum membrane prep or a DDT, membrane prep. Briefly, 0.2 mg of pig striatal membranes or DDT, cell membranes were treated with adenosine deaminase and 50 mM Tris buffer (pH=7.4) followed by mixing. To the pig membranes was added 2 μL of serially diluted DMSO stock solution of the compounds of this invention at concentrations ranging from 100 microM to 10 nM. The control received 2 microL of DMSO alone, then the antagonist [^3H] 8-cyclopentylxanthine (CPX) for pig striatum or the agonist [^3H] 2-chloro-6-cyclopentyladenosine (CCPA) for DDT, membranes in Tris buffer (50 mnM, pH of 7.4) was added to achieve a final concentration of 2 nM. After incubation at 23 C for 2 h, the solutions were filtered using a membrane harvester using multiple washing of the membranes (3×). The filter disks were counted in scintillation cocktail affording the amount of displacement of triated CPX or by the competitive binding compositions of this invention. In the case of the DDT1 cell membranes, some of the determinations of binding affinity (Ki) were made in the presence of Gpp(NH)p as noted in Table 1 (note: Gpp(NH)p shifts the receptor to a low affinity form). Greater than a 5 point curve was used to generate Ki's and the number of experiments is indicated in the column marked in Table 1 below.

[4] = DDT1 cell membranes, read-out: Ki-DDT1 cell membrane
[5] = in presence of Gpp(NH)p (low affinity form), read-out: Ki - DDT1 cell membrane In presence of Gpp (NH)p

Row | SMILES | Emax [1] | Emax [2] | Ki [3, 5] | further results
1 | OC1CCCC1NC(=S)OCC1OC(n2cnc3c(N[C@@H]4CCOC4)ncnc32)C(O)C1O (stereo partly shown) [Compound 64] | – | – | – | GTPγS [1]: 99%; cAMP [2]: 110%
2 | O=C(NC1CCCC1OCc1ccccc1)OCC1OC(n2cnc3c(N[C@@H]4CCOC4)ncnc32)C(O)C1O (stereo partly shown) [Compound 38] | – | – | – | GTPγS [1]: 1%; cAMP [2]: −25%
3 | COC(=O)NCC1OC(n2cnc3c(N[C@@H]4CCOC4)ncnc32)C(O)C1O (stereo partly shown) [Compound 18] | 77% | 86% | – | –
4 | O=c1occn1CC1OC(n2cnc3c(N[C@@H]4CCOC4)ncnc32)C(O)C1O (stereo partly shown) [Compound 80] | 80% | 64% | – | –
5 | O=C(NCC1OC(n2cnc3c(N[C@@H]4CCOC4)ncnc32)C(O)C1O)OC1CCCC1 (stereo partly shown) [Compound 70] | 76% | 79% | – | –
6 | COC(=S)NCC1OC(n2cnc3c(N[C@@H]4CCOC4)ncnc32)C(O)C1O (stereo partly shown) [Compound 71] | 98% | 94% | – | –
7 | CNC(=S)SCC1OC(n2cnc3c(NC4CCOC4)ncnc32)C(O)C1O [Compound 74, 2-{6[((3R)oxolan-3-yl)ainio]purin-9yl}(4S,5S,2R,3R)5-{[(methylamniio)thioxomethylthio]methyl}oxolane3,4diol] | 95% | 82% | – | –
8 | OC1C(CNC(=S)OC2CCCC2)OC(n2cnc3c(N[C@@H]4CCOC4)ncnc32)C1O (stereo partly drawn) [Compound 72, 2-{6-[((3R)oxolan-3-yl)amino]purin-9-yll(4S,2R,3R,5R)5-{[cyclopentyloxythioxomethyl)amino]methyl}oxolane3,4-diol] | 93% | 103% | – | –
9 | OC1C(COC(=S)NC2CCC2)OC(n2cnc3c(N[C@@H]4CCOC4)ncnc32)C1O (stereo partly drawn) [Compound 58, 2-{1[((3)oxolan-3-yl)amino]purin-9-yl}(4S,2R,3R,5R)-5-{[(cyclobutylamino)thioxomethoxy]methyl}oxolane-3,4-diol] | 79% | 78% | – | –
10 | O=C(NC1CCCC1C(=O)O)OCC1OC(n2cnc3c(N[C@@H]4CCOC4)ncnc32)C(O)C1O (stereo partly shown) [Compound 65] | 81% | 95% | – | –
11 | CN(C)C(=S)OC[C@H]1O[C@@H](n2cnc3c(N[C@@H]4CCOC4)ncnc32)[C@H](O)[C@@H]1O [Compound 53, 2-{6-[((3R)oxolan-3-yl)amino]purin-9-yl}(4S,2R,3R,5R)-5-{[(dimethylamino)thioxomethoxy]methyl}oxolane-3,4-diol] | 85% | – | 2110 nM | Ki [3, 4]: 245 nM
12 | CC(C)NC(=S)OC[C@H]1O[C@@H](n2cnc3c(N[C@@H]4CCOC4)ncnc32)[C@H](O)[C@@H]1O [Compound 47, 2-{6-[((3R)oxolan-3-yl)amino]purin-9-yl}(4S,2R,3R,5R)-5({[(methylethyl)amino]thioxomethoxy}methyl)oxolane3,4-diol] | 84% | – | 109 nM | –
13 | OC1C(COC(=S)N2CCCCC2)OC(n2cnc3c(N[C@@H]4CCOC4)ncnc32)C1O (stereo partly shown) [Compound 50] | 88% | – | 1950 nM | Ki [3, 4]: 642 nM
14 | O[C@@H]1[C@H](O)[C@@H](COC(=S)N2CCCC2)O[C@H]1n1cnc2c(N[C@@H]3CCOC3)ncnc21 [Compound 52] | – | – | 1120 nM | GTPγS [1]: 77%
15 | CCCNC(=S)OC[C@H]1O[C@@H](n2cnc3c(N[C@@H]4CCOC4)ncnc32)[C@H](O)[C@@H]1O [Compound 49, 2-{6-[((3R)oxolan-3-yl)amino]purin-9-yl}(4S,2R,3R,5R)-5 {[(propylamino)thioxomethoxy]methyl}oxolane3,4-diol] | 89% | – | 145 nM | –
16 | CCCCNC(=S)OCC1OC(n2cnc3c(N[C@@H]4CCOC4)ncnc32)C(O)C1O (stereo partly shown) [Compound 48] | 70% | – | 926 nM | –
17 | OC1C(COC(=S)NC2CC2)OC(n2cnc3c(N[C@@H]4CCOC4)ncnc32)C1O (stereo partly shown) [Compound 59] | 82% | 115% | – | –
18 | CNC(=S)OC[C@H]1O[C@@H](n2cnc3c(N[C@@H]4CCOC4)ncnc32)[C@H](O)[C@@H]1O [Compound 45, 2-{6-[((3R)oxolan-3-yl)amino]purin-9-yl}(4S,2R,3R,5R)-5 {1(methylamino)thioxomethoxylmethyl}oxolane3,4diol] | 77% | – | 141 nM | –
19 | O=C(NC1CC1c1ccccc1)OC[C@H]1O[C@@H](n2cnc3c(N[C@@H]4CCOC4)ncnc32)[C@H](O)[C@@H]1O (stereo partly drawn) [Compound 40, [(5-{6-[((3R)oxolan-3-yl)amino}purin-9-yl}(3S,2R,4R,5R)-3,4-dihydroxyoxolan-2-yl)methoxy]-N-(2-phenylcyclopropyl)carboxamide] | -6% | -14% | – | –
20 | CCNC(=S)OC[C@H]1O[C@@H](n2cnc3c(N[C@@H]4CCOC4)ncnc32)[C@H](O)[C@@H]1O [Compound 46, 2-{6[((3R)oxolan-3-yl)amino]purin-9-yl}(4S,2R,3R,5R)-5-{[(ethylamino)thioxomethoxy]methyl}oxolane3,4diol] | 77% | – | 135 nM | –
21 | OC1C(COC(=S)NC2CCCC2OCc2ccccc2)OC(n2cnc3c(N[C@@H]4CCOC4)ncnc32)C1O (stereo partly shown) [Compound 57] | 67% | – | – | cAMP [2]: 73%
22 | OC1CCCC1NC(=S)OCC1OC(n2cnc3c(N[C@@H]4CCOC4)ncnc32)C(O)C1O (stereo partly shown) [Compound 63] | 100% | 115% | – | –
